Data as given in article PMC6199744, “Development of Chemical Proteomics for the Folateome and Analysis of the Kinetoplastid Folateome” (ACS Infectious Diseases, 2018).
Values joined by “and” are separate entries in the source; they are usually repeats but may differ in a detail not shown here. Identical values can stand only once. Like-named read-outs stand apart in the source and are kept apart here.

Tested on: T. brucei lysate proteins
Format: binding, Trypanosoma brucei

NCCOCCOCC(=O)Nc1nc2ncc(CNc3ccc(C(=O)NC(CCC(=O)O)C(=O)O)cc3)nc2c(=O)[nH]1 (stereo not shown) [compound 6]
fold change vs vehicle control: 0.88 and 0.97 and 1.1 and 0.99 and 0.76 and 1 | fold change (protein CZB00000046.1 HA-UBIQUITIN, vehicle control = 1): 0.9 | fold change (protein CZT00018965.1 RETRO[…] (RHS) PROTEIN 1, vehicle control = 1): 1.49 | fold change (protein RHS6A, vehicle control = 1): 1 | fold change vs vehicle control (protein TB09.160.3270 ATP-DEPENDENT DEAD BOX HELICASE, PUTATIVE, vehicle control = 1): 1.28 | fold change vs vehicle control (protein TB09.160.4200 60S ACIDIC RIBOSOMAL PROTEIN, PUTATIVE, vehicle control = 1): 0.88 | fold change vs vehicle control (protein TB09.211.2630 60S RIBOSOMAL PROTEIN L23, PUTATIVE, vehicle control = 1): 0.96 | fold change (protein TB09.211.4760 METACASPASE 5, PUTATIVE, vehicle control = 1): 0.82 | fold change (protein TB11.01.1690 HY[…], CONSERVED, vehicle control = 1): 1.19 | fold change vs vehicle control (protein TB11.01.2560 40S RIBOSOMAL PROTEIN SA, PUTATIVE, vehicle control = 1): 0.94 | fold change vs vehicle control (protein TB11.01.3180 GUANINE NUCLEOTIDE-BINDING PROTEIN BETA SUBUNIT-LIKE PROTEIN, vehicle control = 1): 0.97 | fold change (protein TB11.01.3560 VACUOLAR ATP SYNTHASE SUBUNIT B, PUTATIVE, vehicle control = 1): 0.93 | fold change vs vehicle control (protein TB11.01.4370 HY[…], CONSERVED, vehicle control = 1): 0.96 | fold change (protein TB11.01.5350 PROFILIN, vehicle control = 1): 0.97 | fold change vs vehicle control (protein TB11.01.5910 DYNEIN IN[…] IC70, PUTATIVE, vehicle control = 1): 0.99 | fold change (protein TB11.01.8590 RAB-LIKE 5, SMALL G PROTEIN, vehicle control = 1): 0.94 | fold change (protein TB11.01.8740 PROTEIN PHOSPHATASE 4, PUTATIVE, vehicle control = 1): 0.8 | fold change vs vehicle control (protein TB11.02.0730 METACASPASE, vehicle control = 1): 0.84 | fold change vs vehicle control (protein TB11.02.1135 DYNEIN LIGHT CHAIN, PUTATIVE, vehicle control = 1): 1.14 | fold change vs vehicle control (protein TB11.02.2040 HY[…], CONSERVED (ALBA-Domain Protein), vehicle control = 1): 1.34 | fold change vs vehicle control (protein TB11.02.2420 HY[…], CONSERVED, vehicle control = 1): 0.9 | fold change vs vehicle control (protein TB11.02.2510 GUANINE NUCLEOTIDE-BINDING BETA SUBUNIT-LIKE PROTEIN, vehicle control = 1): 1 | fold change vs vehicle control (protein TB11.02.2640 DYNEIN IN[…] IC78, PUTATIVE, vehicle control = 1): 0.97 | fold change (protein TB11.02.2960 MIT[…] PROTEIN, PUTATIVE, vehicle control = 1): 0.88 | fold change vs vehicle control (protein TB11.03.0250 C[…], vehicle control = 1): 1.45 | fold change (protein TB11.46.0009 HY[…], CONSERVED, vehicle control = 1): 0.99 | fold change vs vehicle control (protein TB427TMP.01.1680 POLYUBIQUITIN, PUTATIVE, vehicle control = 1): 1.25 | fold change (protein TB427TMP.01.1830 HY[…], CONSERVED, vehicle control = 1): 0.89 | fold change vs vehicle control (protein TB427TMP.01.4280 HY[…], CONSERVED, vehicle control = 1): 0.84 | fold change (protein TB427TMP.01.4750 […] 1 GAMMA, PUTATIVE, vehicle control = 1): 1 | fold change vs vehicle control (protein TB427TMP.01.5000 HY[…], CONSERVED, vehicle control = 1): 0.91 | fold change vs vehicle control (protein TB427TMP.01.5680 HY[…], CONSERVED, vehicle control = 1): 1.21 | fold change (protein TB427TMP.01.5960 MIT[…] PROTEIN, PUTATIVE, vehicle control = 1): 0.82 | fold change vs vehicle control (protein TB427TMP.01.6890 SMALL GTPASE, PUTATIVE, vehicle control = 1): 1.56 | fold change (protein TB427TMP.01.7490 HY[…], CONSERVED, vehicle control = 1): 0.97 | fold change (protein TB427TMP.01.8390 HY[…], CONSERVED, vehicle control = 1): 0.88 | fold change (protein TB427TMP.02.0030 DYNEIN HEAVY CHAIN, PUTATIVE, vehicle control = 1): 1 | fold change (protein TB427TMP.02.0760 DYNEIN HEAVY CHAIN, PUTATIVE, vehicle control = 1): 0.82 | fold change (protein TB427TMP.02.1070 AMINOPEPTIDASE, PUTATIVE, vehicle control = 1): 1.1 | fold change (protein TB427TMP.02.1460 HY[…], CONSERVED, vehicle control = 1): 0.98 | fold change (protein TB427TMP.02.1860 HY[…], CONSERVED, vehicle control = 1): 0.97 | fold change vs vehicle control (protein TB427TMP.02.2070 LONG-CHAIN-FATTY-ACID-COA LIGASE, PUTATIVE, vehicle control = 1): 0.99 | fold change vs vehicle control (protein TB427TMP.02.2120 NUCLEOPORIN 48, vehicle control = 1): 1.18 | fold change vs vehicle control (protein TB427TMP.02.2890 HY[…], CONSERVED, vehicle control = 1): 0.94 | fold change (protein TB427TMP.02.4100 PRETRA[…], ALPHA SUBUNIT, PUTATIVE, vehicle control = 1): 1.3 | fold change (protein TB427TMP.02.4550 HY[…], CONSERVED, vehicle control = 1): 0.88 | fold change (protein TB427TMP.02.5660 HY[…], CONSERVED, vehicle control = 1): 0.95 | fold change vs vehicle control (protein TB427TMP.02.5720 RIBONUCLEOSIDE-DIPHOSPHATE REDUCTASE LARGE CHAIN, vehicle control = 1): 0.88 | fold change (protein TB427TMP.160.2370 HY[…], CONSERVED, vehicle control = 1): 0.93 | fold change (protein TB427TMP.160.3630 CAMP-SPECIFIC PHOSPHODIESTERASE, vehicle control = 1): 0.97 | fold change (protein TB427TMP.160.4240 […] PROTEIN-LIKE PROTEIN, vehicle control = 1): 1.2 | fold change vs vehicle control (protein TB427TMP.160.4450 40S RIBOSOMAL PROTEIN S3, PUTATIVE, vehicle control = 1): 1.12 | fold change vs vehicle control (protein TB427TMP.160.4560 ARGININE KINASE, vehicle control = 1): 1.65 | fold change vs vehicle control (protein TB427TMP.160.4630 HY[…], CONSERVED, vehicle control = 1): 0.88 | fold change (protein TB427TMP.160.4770 PROTEIN KINASE, PUTATIVE, vehicle control = 1): 0.84 | fold change (protein TB427TMP.160.4910 FLAVOPROTEIN MONOOXYGENASE, PUTATIVE, vehicle control = 1): 0.97 | fold change (protein TB427TMP.160.5670 HY[…], CONSERVED, vehicle control = 1): 0.99 | fold change (protein TB427TMP.211.2460 HY[…], CONSERVED, vehicle control = 1): 0.99 | fold change vs vehicle control (protein TB427TMP.211.2570 T-COMPLEX PROTEIN 1, ETA SUBUNIT, PUTATIVE, vehicle control = 1): 0.91 | fold change vs vehicle control (protein TB427TMP.211.3140 HY[…], CONSERVED, vehicle control = 1): 1.47 | fold change vs vehicle control (protein TB427TMP.211.3510 ATP-DEPENDENT DEAD/H RNA HELICASE, PUTATIVE, vehicle control = 1): 0.88 | fold change vs vehicle control (protein TB427TMP.211.4170 HY[…], CONSERVED, vehicle control = 1): 0.88 | fold change (protein TB427TMP.47.0011 HY[…], CONSERVED, vehicle control = 1): 0.93 | fold change vs vehicle control (protein TB427TMP.55.0006 INTR[…] PROTEIN IFT88, vehicle control = 1): 0.95 | fold change vs vehicle control (protein TB427TMP.57.0008 CALPAIN-LIKE PROTEIN, PUTATIVE, vehicle control = 1): 0.97 | fold change (protein TB427TMP.V1.0370 HY[…], CONSERVED, vehicle control = 1): 0.88 | fold change vs vehicle control (protein TB427.01.120 RETRO[…] SPOT (RHS) PROTEIN, PUTATIVE, vehicle control = 1): 0.88 | fold change (protein TB427.01.2570 COATOMER BETA SUBUNIT, vehicle control = 1): 0.88 | fold change (protein TB427.01.420 RETRO[…] SPOT (RHS) PROTEIN, PUTATIVE, vehicle control = 1): 0.97 | fold change (protein TB427.01.5030 LEUCINE-RICH REPEAT PROTEIN (LRRP), PUTATIVE, vehicle control = 1): 0.93 | fold change vs vehicle control (protein TB427.02.2970 MIT[…] PROTEIN, PUTATIVE, vehicle control = 1): 1.21 | fold change vs vehicle control (protein TB427.02.6050 BETA PRIME COP PROTEIN, vehicle control = 1): 1.36 | fold change vs vehicle control (protein TB427.03.1210 PROTEIN TRANSPORT PROTEIN SEC24, vehicle control = 1): 1.1 | fold change vs vehicle control (protein TB427.03.3160 POLY(A) POLYMERASE, vehicle control = 1): 0.47 | fold change vs vehicle control (protein TB427.03.4040 HY[…], CONSERVED (Ankyrinrepeat), vehicle control = 1): 2.65 | fold change vs vehicle control (protein TB427.03.4750 AMINOPEPTIDASE, PUTATIVE, vehicle control = 1): 1.1 | fold change (protein TB427.03.4910 SIGNAL PEPTIDE PEPTIDASE, PUTATIVE, vehicle control = 1): 1.22 | fold change (protein TB427.04.1300 HY[…], CONSERVED, vehicle control = 1): 1.2 | fold change vs vehicle control (protein TB427.04.1510 PHOSPHOLIPID-TRA[…], PUTATIVE, vehicle control = 1): 1 | fold change (protein TB427.04.2340 HY[…], CONSERVED, vehicle control = 1): 0.92 | fold change (protein TB427.04.310 HY[…], CONSERVED, vehicle control = 1): 0.6 | fold change (protein TB427.04.420 PHOSPHATIDYLINOSITOL 3-KINASE (TOR2), vehicle control = 1): 0.71 | fold change (protein TB427.04.450 COATOMER ALPHA SUBUNIT, PUTATIVE, vehicle control = 1): 0.86 | fold change vs vehicle control (protein TB427.04.4870 AMINO ACID TRANSPORTER, PUTATIVE, vehicle control = 1): 1.1 | fold change (protein TB427.04.5010 CALRETICULIN, PUTATIVE, vehicle control = 1): 1.53 | fold change vs vehicle control (protein TB427.05.1700 R[…] A 28 KDA SUBUNIT, PUTATIVE, vehicle control = 1): 1.31 | fold change vs vehicle control (protein TB427.05.3260 HY[…], CONSERVED, vehicle control = 1): 0.88 | fold change vs vehicle control (protein TB427.05.4560 GUANINE DEAMINASE, PUTATIVE, vehicle control = 1): 0.93 | fold change vs vehicle control (protein TB427.06.1070 HY[…], CONSERVED, vehicle control = 1): 0.94 | fold change vs vehicle control (protein TB427.06.1500 ALKYL-DIHYDR[…] SYNTHASE, vehicle control = 1): 0.97 | fold change (protein TB427.06.1800 PROTEIN PHOSPHATASE 2C, PUTATIVE, vehicle control = 1): 0.92
